Assay results as given in article PMC11996864, “A small-molecule inhibitor of BCL10-MALT1 interaction abrogates progression of diffuse large B cell lymphoma” (The Journal of Clinical Investigation, 2025).
“And” between values parts separate entries of the source, which are not always exact repeats. Identical values can stand only once.

Key:
[1] = target: T1, binding of Id1 to immobilized MyoD (Homo sapiens, UniProt P41134); experiment: MyoD1/ID1 ELISA (specificity control); details: for inhibition of binding of Id1 to immobilized MyoD: result in words
T1 construct: purchased Proteintech Ag13359 (GST-ID1); Ag13186 (His-MyoD1)
T1 sequence (P41134 1-155): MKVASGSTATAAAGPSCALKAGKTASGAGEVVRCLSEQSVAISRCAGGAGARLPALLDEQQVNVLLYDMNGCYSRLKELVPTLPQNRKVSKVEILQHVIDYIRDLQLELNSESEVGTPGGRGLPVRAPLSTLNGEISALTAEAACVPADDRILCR
Method: ELISA-based protein-protein interaction assay. On a high-binding 96-well ELISA microplate (Greiner Cat# 655061), 100 ng of His-tagged recombinant human full-length BCL10 protein (Novus Cat# NBP1-99064) or in 100 µl PBS was allowed to adhere overnight at 4°C. The plate was blocked with 5% BSA in PBS for 1 hour at room temperature. After washing twice with PBS-T, a mixture of 100 ng of GST-tagged recombinant human full-length MALT1 protein (Novus Biologicals Cat# H00010892-P01) and compound that was preincubated for 1 hour in 100 μl PBS was added to the plate for 1 hour at room temperature. After washing three times with PBS-T, anti-MALT1 antibody (Cell Signaling Technology, Cat# 2494) in 5% BSA in PBS was added at 1:1000 dilution for 1 hour at room temperature. After washing three times with PBS-T, HRP-conjugated secondary antibody in 5% BSA in PBS was added at 1:5000 dilution for 1 hour at room temperature. After washing three times with PBS-T, 100 µl of 3,3’,5,5’-tetramethylbenzidine (TMB) substrate solution (Thermo Scientific, Cat# 34028) was added for up to 15 minutes, and 100 µl of 2 M sulfuric acid was added to stop the reaction. The plate was read at 450 nm using a spectrophotometer (Molecular Devices SpectraMax i3). The MyoD1/ID ELISA was performed as above except that 100 ng of recombinant human His-tagged MyoD1 (Proteintech, Cat# Ag13186) was plated overnight at 4°C prior to the addition of 100 ng of recombinant human GST-ID1 (Proteintech, Cat# Ag13359) preincubated to with compounds. The anti-GST antibody (clone 26H1, Cell signaling Technology, Cat #2624) was used to detect bound ID1. […]

[2] = test system: ERK1/2 phosphorylation in Jurkat T cells; experiment: ERK phosphorylation after CD3/CD28 stimulation (MALT1-independent control); assay type: cell-based, human; details: for ERK phosphorylation: result in words; for pERK 1/2 (normalized): Jurkat, 1 μM;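 on pERK 1/2 (normalized): Phosphorylated ERK1/2 relative to total ERK1/2 protein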
Method: Western blot analysis of RelB and N4BP1 cleavage was used to test the effect of small molecules on MALT1 protease activity. To this end, 3 million Jurkat T cells were pretreated with compounds for 24 hours in serum-free media, and then 5 μM MG-132 was added for 1 hour before stimulation with CD3/CD28 (Stemcell Technologies, catalog 10971), and lysed in RIPA buffer (Millipore, catalog 20-188) with protease and phosphatase inhibitor cocktail (Pierce, catalog 78446). IKKα/β phosphorylation and IκBα phosphorylation were used as measures of MALT1 scaffolding activity, while ERK1/2 phosphorylation was used as a control. […] For experiments evaluating RelB cleavage and phosphorylation of IκBα in TMD8 cells, cells were treated with compounds for 24 hours in media containing 5% FBS. For RelB Western blot analysis, 5 μM MG-132 (Cell Signaling Technology, catalog 2194s) was added 4 hours before lysis in RIPA lysis buffer with protease/phosphatase inhibitors.

[3] = test system: OCI-Ly3 cells; experiment: cells; parameters: species or system TMD8 or OCI-Ly3; Inhibition of spontaneous IL-6 secretion from ABC-DLBCL cells, human IL-6 ELISA of supernatants; details: Homo sapiens, OCI-Ly3, 20 h; IL-6 secretion; read-out: IC50 (µM) IL-6 inhibition
Method: (§1) Cytokine ELISAs. Cytokines in cell culture supernatants were measured 20-24h after treatment with 0, 0.01, 0.03, 0.1, 0.3, 1, or 3 µM of compounds using the following ELISA kits according to the manufacturer’s instructions: Human IL-2 ELISA (BioLegend Cat# 431804), Human IL-6 ELISA (BioLegend Cat# 430504), and Human IL-10 ELISA (BioLegend Cat# 430604). TMD8 and OCI-Ly3 cells were treated with specific doses of compounds in serum-free media for 20 hours. Jurkat T cells were pretreated with specific doses of compounds for 8 hours in serum-free media, then stimulated with PMA/ionomycin for 16 hours prior to the collection of supernatants. Mouse splenocytes were isolated from spleens of C57/BL6 mice by passing spleens through a 70 micron filter followed by red blood cell lysis using ACK lysing buffer (Quality Biologics, Cat# 118-156-101). […] Supernatant was collected at 24 hours and mouse IL-2 levels were analyzed via ELISA (R&D Systems, Cat# DY402-05). IL-6 and IL-10 are NF-κB–induced cytokines that promote the proliferation and survival of malignant B cells through both autocrine and paracrine mechanisms ([44]), and are negative prognostic factors in ABC-DLBCL ([45], [46]). ABC-DLBCL cell lines spontaneously secrete substantial levels of IL-6 and IL-10, whereas GCB-DLBCL cell lines express only a negligible amount of these cytokines ([24]). […] The IC50 for inhibition of cytokine secretion by each compound in each cell line is reported in Supplemental Table 1.  Figure 4 M1i-124 and M1i-124d1 inhibit MALT1 protease and scaffolding functions, and MALT1-dependent cytokine secretion, in ABC-DLBCL cells. (A and B) Effect of 1 μM compound pretreatment on constitutive RelB cleavage (A) and IκB phosphorylation (B) within TMD8 cells. Representative Western blots are shown along with quantification (mean ± SEM; n = 2). (C) IL6 and IL10 mRNA levels in TMD8 cells treated with 1 μM M1i-124 or M1i-124d1 (mean ± SEM; n = 6). […] Statistical analyses were performed using 1-way ANOVA and Dunnett’s multiple-comparison test. **P < 0.01, ***P < 0.001, ****P < 0.0001.

[4] = test system: TMD8 cells; experiment: cells; parameters: species or system TMD8 or OCI-Ly3; Inhibition of spontaneous IL-6 secretion from ABC-DLBCL cells, human IL-6 ELISA of supernatants; details: Homo sapiens, TMD8, 20 h; IL-6 secretion; read-out: IC50 (µM) IL-6 inhibition
Method: as §1

remaining activity at 0.39 µM ([1]; 0.39 µM, read-out: MyoD-Id Interaction (% of control)) [%]	remaining activity at 6.25 µM ([1]; 6.25 µM, read-out: MyoD-Id Interaction (% of control)) [%]	Compound	MyoD-Id Interaction (% of control) ([1]; 0.0975 µM)	MyoD-Id Interaction (% of control) ([1]; 0.39 µM)	MyoD-Id Interaction (% of control) ([1]; 1.56 µM)	MyoD-Id Interaction (% of control) ([1]; 6.25 µM)	MyoD-Id Interaction (% of control) ([1]; 12.5 µM)	remaining activity at 12.5 µM ([1]; 12.5 µM, read-out: MyoD-Id Interaction (% of control)) [%]	MyoD-Id Interaction (% of control) ([1]; 25 µM)	MyoD-Id Interaction (% of control) ([1]; 50 µM)	remaining activity at 50 µM ([1]; 50 µM, read-out: MyoD-Id Interaction (% of control)) [%]	MyoD-Id Interaction (% of control) ([1]; 100 µM)	inhibition of binding of Id1 to immobilized MyoD [1]	ERK phosphorylation [2]	IC50 [3] [µM]	IC50 [4] [µM]	pERK 1/2 (normalized) ([2]; CD3/CD28 5 min)	pERK 1/2 (normalized) ([2]; CD3/CD28 10 min)	pERK 1/2 (normalized) ([2]; CD3/CD28 15 min)	pERK 1/2 (normalized) ([2]; CD3/CD28 20 min)
–	–	O=S(=O)(NCc1ccc2c(c1)OCO2)c1ccc(Cc2ccc(S(=O)(=O)NCc3ccc4c(c3)OCO4)cc2)cc1 [M1i-124]	75 % of control and 118.107 % of control and 86.1723 % of control	70.9459 % of control and 110.989 % of control and 93.988 % of control	102.244 % of control and 139.153 % of control and 113.828 % of control	126.689 % of control and 146.808 % of control and 132.264 % of control	149.548 % of control and 131.062 % of control	145	150.772 % of control and 122.599 % of control and 116.032 % of control	152.034 % of control and 140.013 % of control	158	153.861 % of control and 138.475 % of control and 133.2 % of control	neither M1i-124 nor M1i-124d1 could inhibit	unaffected	0.8	1.3	–	–	–	–
80.9	97.9	COc1ccc(CNS(=O)(=O)c2ccc(Cc3ccc(S(=O)(=O)NCc4ccc(OC)cc4)cc3)cc2)cc1 [M1i-124d1]	78.8369 % of control and 104.379 % of control and 92.0174 % of control	96.3277 % of control and 95.1904 % of control	85.8349 % of control and 109.633 % of control and 85.4375 % of control	108.475 % of control and 92.4516 % of control	119.401 % of control and 82.5424 % of control and 93.487 % of control	–	109.677 % of control and 97.6271 % of control and 64.0281 % of control	120.512 % of control and 93.4463 % of control and 89.2118 % of control	–	139.841 % of control and 108.927 % of control and 105.812 % of control	neither M1i-124 nor M1i-124d1 could inhibit	unaffected	> 3	0.8	1.155 and 0.776 and 1.27 and 0.7498 and 0.998	1.2674 and 0.9152 and 1.197 and 0.7135 and 0.9691	1.05 and 0.8514 and 1.066 and 0.6774 and 0.9099	0.8015 and 0.6878 and 0.9541 and 0.7317 and 0.9634
